In patent US6525001B1, “Substituted pyrimidine and pyridine herbicides” (Mid-American Commercialization Corporation, priority 1997, dated 2003):

Experiments:
Assay type in all cases: in vivo
Design in all cases: key: 0 is no effect; 10 is complete control
[1] = tested on: giant foxtail (Setaria faberii); experiment: Test B pre-/postemergence
How it was run: (§1)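 Seeds were planted and sprayed preemergence, while plants at 2 to 18 cm (1- to 4-leaf stage) were sprayed postemergence at the same time, with test chemical in a non-phytotoxic solvent mixture containing surfactant. After twelve to sixteen days in a greenhouse, injury was rated visually against untreated controls on a 0–10 scale.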

[2] = tested on: purple nutsedge (Cyperus rotundus); experiment: Test B pre-/postemergence
How it was run: as §1

[3] = tested on: bamyardgrass (Echinochloa crus-galli); experiment: Test B flood test; conditions: for Plant response rating, Barnyardgrass: Postemergence (flood test species)
How it was run: (§2)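 Plants were grown to the 2-leaf stage before treatment with test chemical, then held in a greenhouse for twelve to sixteen days. Injury was visually rated against untreated controls on a 0–10 scale, where 0 is no effect and 10 is complete control.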

[4] = tested on: duck salad (Heteranthera limosa); experiment: Test B flood test; conditions: for Plant response rating, Ducksalad: Postemergence (flood test species)
How it was run: as §2

rice (Oryza sativa) = experiment: Test B flood test; conditions: for Plant response rating, Rice: Postemergence (flood test species)
How it was run: as §2

[5] = tested on: smallflower flatsedge (Cyperus difformis); experiment: Test B flood test; conditions: for Plant response rating, S. Flatsedge: Postemergence (flood test species)
How it was run: as §2

[6] = Preemergence, Rate 62 g/ha, scale of 0 to 10
[7] = Rate 62 g/ha, Postemergence (flood test)
[8] = Rate 125 g/ha, Postemergence section (flood test species)

SMILES	Plant response rating, Giant foxtail [1, 6]	Giant foxtail plant response rating ([1]; Rate 62 g/ha, Postemergence)	Giant foxtail plant response rating ([1]; Rate 125 g/ha, Postemergence)	Plant response rating, Giant foxtail ([1]; Rate 125 g/ha, Preemergence)	Plant response rating, Giant foxtail ([1]; Rate 250 g/ha, Postemergence)	Plant response rating, Giant foxtail ([1]; Rate 250 g/ha, Preemergence)	Plant response rating, Giant foxtail ([1]; Rate 500 g/ha, Postemergence)	Plant response rating, Giant foxtail ([1]; Rate 500 g/ha, Preemergence)	Plant response rating, Nutsedge [2, 6]	Nutsedge plant response rating ([2]; Rate 62 g/ha, Postemergence)	Plant response rating, Nutsedge ([2]; Rate 125 g/ha, Preemergence)	Barnyardgrass plant response rating [3, 7]	Barnyardgrass plant response rating [3, 8]	Plant response rating, Barnyardgrass ([3]; Rate 250 g/ha)	Plant response rating, Barnyardgrass ([3]; Rate 500 g/ha)	Ducksalad plant response rating [4, 7]	Ducksalad plant response rating [4, 8]	Plant response rating, Ducksalad ([4]; Rate 250 g/ha)	Plant response rating, Ducksalad ([4]; Rate 500 g/ha)	Rice plant response rating (rice (Oryza sativa); [7])	further results
Cc1cnc(-c2ccc(C(F)(F)F)cc2)nc1Cn1cc(Br)cn1 [Compound 54]	1	2	3	1	4	8	4	10	0	0	0	2	3	3	4	0	0	1	3	1	Nutsedge plant response rating ([2]; Rate 125 g/ha, Postemergence): 0; Plant response rating, Nutsedge ([2]; Rate 250 g/ha, Postemergence): 0; Plant response rating, Nutsedge ([2]; Rate 250 g/ha, Preemergence): 0; Plant response rating, Nutsedge ([2]; Rate 500 g/ha, Postemergence): 0; Plant response rating, Nutsedge ([2]; Rate 500 g/ha, Preemergence): 0; Rice plant response rating (rice (Oryza sativa); [8]): 2; Plant response rating, Rice (rice (Oryza sativa); Rate 250 g/ha): 3; Plant response rating, Rice (rice (Oryza sativa); Rate 500 g/ha): 4; S. Flatsedge plant response rating [5, 7]: 6; S. Flatsedge plant response rating [5, 8]: 8; Plant response rating, S. Flatsedge ([5]; Rate 250 g/ha): 9; Plant response rating, S. Flatsedge ([5]; Rate 500 g/ha): 9
Cc1cnc(-n2ccc(C(F)(F)F)n2)nc1C(=O)c1cccc(C(F)(F)F)c1 [Compound 59]	8	6	6	10	8	10	9	10	0	0	0	3	4	5	8	3	4	6	7	2	Nutsedge plant response rating ([2]; Rate 125 g/ha, Postemergence): 0; Plant response rating, Nutsedge ([2]; Rate 250 g/ha, Postemergence): 0; Plant response rating, Nutsedge ([2]; Rate 250 g/ha, Preemergence): 0; Plant response rating, Nutsedge ([2]; Rate 500 g/ha, Postemergence): 0; Plant response rating, Nutsedge ([2]; Rate 500 g/ha, Preemergence): 0; Rice plant response rating (rice (Oryza sativa); [8]): 3; Plant response rating, Rice (rice (Oryza sativa); Rate 250 g/ha): 4; Plant response rating, Rice (rice (Oryza sativa); Rate 500 g/ha): 6; S. Flatsedge plant response rating [5, 7]: 7; S. Flatsedge plant response rating [5, 8]: 7; Plant response rating, S. Flatsedge ([5]; Rate 250 g/ha): 8; Plant response rating, S. Flatsedge ([5]; Rate 500 g/ha): 9
Cc1cnc(-n2cnc(C(F)(F)F)c2)nc1C(=O)c1cccc(C(F)(F)F)c1 [Compound 61]	8	2	4	9	5	10	9	10	0	0	0	2	3	3	4	0	1	3	5	0	Nutsedge plant response rating ([2]; Rate 125 g/ha, Postemergence): 0; Plant response rating, Nutsedge ([2]; Rate 250 g/ha, Postemergence): 0; Plant response rating, Nutsedge ([2]; Rate 250 g/ha, Preemergence): 0; Rice plant response rating (rice (Oryza sativa); [8]): 0; Plant response rating, Rice (rice (Oryza sativa); Rate 250 g/ha): 2; Plant response rating, Rice (rice (Oryza sativa); Rate 500 g/ha): 2; S. Flatsedge plant response rating [5, 7]: 3; S. Flatsedge plant response rating [5, 8]: 7; Plant response rating, S. Flatsedge ([5]; Rate 250 g/ha): 8; Plant response rating, S. Flatsedge ([5]; Rate 500 g/ha): 9
Cc1cnc(-n2ccc(C(F)(F)C(F)(F)F)n2)nc1C(=O)c1cccc(OC(F)(F)F)c1 [Compound 62]	1	1	2	2	2	4	3	4	0	0	0	1	2	3	4	0	0	0	2	0	Nutsedge plant response rating ([2]; Rate 125 g/ha, Postemergence): 0; Plant response rating, Nutsedge ([2]; Rate 250 g/ha, Preemergence): 0; Plant response rating, Nutsedge ([2]; Rate 500 g/ha, Preemergence): 0; Rice plant response rating (rice (Oryza sativa); [8]): 0; Plant response rating, Rice (rice (Oryza sativa); Rate 250 g/ha): 0; Plant response rating, Rice (rice (Oryza sativa); Rate 500 g/ha): 0; S. Flatsedge plant response rating [5, 7]: 3; S. Flatsedge plant response rating [5, 8]: 6; Plant response rating, S. Flatsedge ([5]; Rate 250 g/ha): 7; Plant response rating, S. Flatsedge ([5]; Rate 500 g/ha): 8
Cc1cnc(-n2cnc(C(F)(F)F)c2)nc1C(=O)c1cccc(OC(F)(F)F)c1 [Compound 63]	2	2	2	3	3	6	3	8	0	0	0	1	3	3	3	0	0	2	6	0	Plant response rating, Nutsedge ([2]; Rate 250 g/ha, Postemergence): 0; Plant response rating, Nutsedge ([2]; Rate 500 g/ha, Preemergence): 0; Rice plant response rating (rice (Oryza sativa); [8]): 0; Plant response rating, Rice (rice (Oryza sativa); Rate 250 g/ha): 1; Plant response rating, Rice (rice (Oryza sativa); Rate 500 g/ha): 1; S. Flatsedge plant response rating [5, 7]: 4; S. Flatsedge plant response rating [5, 8]: 7; Plant response rating, S. Flatsedge ([5]; Rate 250 g/ha): 8; Plant response rating, S. Flatsedge ([5]; Rate 500 g/ha): 9
